Columns and labels:
pancreatic cancer cells = test: Cell cycle analysis by flow cytometry after irradiation; assay type: cell-based; settings: 1 μM VE-821 1 h prior to 6 Gy; FIG. 7 (hypoxic), FIG. 4
Description: VE-821 (1 μM) was added 1 h prior to 6 Gy irradiation and left for the duration of the experiment. Cells were lifted and fixed at 12 h or 24 h after irradiation, stained with propidium iodide and analysed for cell cycle distribution by flow cytometry (n=3) Cells were pre-incubated under hypoxic (0.5% O2) conditions for 6 h and 1 μM VE-821 was added 1 h prior to irradiation (6 Gy). Cells were transferred to normoxia 1 h after irradiation and were lifted and fixed at 12 h or 24 h after irradiation, stained with propidium iodide and analysed for cell cycle distribution by flow cytometry (n=3). Cells growing in 6-well dishes were treated with 1 μM VE-821 drug 1 h prior to 6 Gy irradiation. Cells were incubated for 6 h before irradiation under oxia (21% O2) or hypoxia (0.5% O2) using tightly sealed chambers. At multiple time points, cells were lifted in trypsin and fixed in 70% ethanol and stored at 4° C. Cells were incubated with propidium iodide (50 μg/ml in PBS containing 200 μg/ml RNAse) for 1 h at room temperature and analysed by flow cytometry (FACSort, Becton Dickinson). Cell cycle phase was quantitated using ModFit Cell Cycle Analysis software.

[1] = test system: DNA damage foci and RAD51 foci; test: Nuclear foci analysis (γH2AX, 53BP1, RAD51); assay type: cell-based; settings: 1 μM VE-821, 6 Gy
Description: Cells were treated with 1 μM VE-821 at various time points in relation to 6 Gy irradiation, as indicated, and fixed at 24 h post-irradiation. Subsequently, cells were stained for (A) γH2AX and (B) 53BP1 foci and the percentage of cells with more than 7 and 5 foci per cell was quantitated, respectively. C, for analysing Rad51 foci formation, cells were fixed at 6 h post-irradiation and the percentage of cells with more than 9 foci per cell was quantitated. Representative images are shown on the right (n=3). *, P<0.05 Cells growing in 96-well plates were treated with 1 μM VE-821 drug 1 h prior to 6 Gy irradiation and fixed in 3% formaldehyde at multiple time points. Cells were subsequently pearmeabalised and blocked in PBS with 0.1% Triton 1% BSA (w/v). Cells were incubated with primary antibody overnight at 4° C. and after a PBS wash incubated with fluorescently labeled secondary antibody followed gy a PBS wash and nuclear staining with DAPI. Images were acquired and foci quantitated using an IN Cell Analyzer 1000 automated epifluorescence microscope and analysis software (GE Healthcare, Cahlfont St. Giles, UK)

[2] = test system: PSN-1, Panc-1, MiaPaCa-2 pancreatic cancer cell lines; test: Cell viability assay (Alamar Blue) with irradiation, tumour cells; assay type: cell-based; settings: VE-821 for 96 h with or without 4 Gy; viability after 8 days; FIG. 1 panel B
Description: PSN-1, Panc-1, MiaPaCa-2 pancreatic cancer cell lines and MRCS fibroblasts were treated with increasing concentrations of VE-821 for 96 h combined with or without 4 Gy radiation at 1 h after VE-821 addition. Cell viability was measured after 8 days and shown as normalized to DMSO-treated cells. MiaPaCa-2, PSN-1, Panc1 and MRCS cells (5×104) were plated in 96-well plates and after 4 h treated with increasing concentrations of VE-821 at 1 h before irradiation with a single dose of 6 Gy. Medium was replaced 96 h post-irradiation at which point viability was measured using the using the Alamar Blue assay (Resazurin substrate, SIGMA). Cells were allowed to proliferate and cell viability was again analyzed at day 8 for the different treatment conditions. Cell viability and surviving fraction were normalized to the untreated (control) group.

[3] = test system: phosphorylation of Chk1 (Ser 345); test: Western blot analysis of Chk1 inhibition; assay type: cell-based; settings: 1 μM VE-821; after gemcitabine (100 nM), radiation (6 Gy) or both; FIG. 1 panel A
Description: Cells were treated with 100 nM gemcitabine for 1 h, 1 μM VE-821 was added 1 h later and cells were irradiated (6 Gy) 1 h after that. Drugs were left for the duration of the experiment and cells were lysed at 2 h post-irradiation and subjected to Western blot analysis. MiaPaCa-2 and PSN-1 cells were exposed to gemcitabine and/or 1 μM VE-821 drug 1 h prior to irradiation with a single dose of 6 Gy. Cells were lysed in RIPA buffer 2 h post-irradiation and subjected to SDS-PAGE electrophoresis and immunoblotting. Chemoluminescence (SuperSignal, Millipore) and film exposure was used to detect antibody binding. Exposed film was digitized and figures were assembled using Microsoft PowerPoint.

[4] = test system: PSN-1 pancreatic cancer xenograft; test: PSN-1 pancreatic cancer xenograft model with ionizing radiation; assay type: in vivo; settings: PSN-1 xenograft; FIGS. 14 and 15
[5] = test system: PSN1 pancreatic cancer xenografts; test: PSN1 pancreatic cancer xenograft model with gemcitabine; assay type: in vivo, female nude MF1 mice; settings: VE-822 PO q2d 10, 30 or 60 mg/kg with gemcitabine 15 mg/kg IP q3d; FIG. 21
Description: PSN1 cells (1×10^6 cells per mouse) were implanted as a mixture in Matrigel (100 μl per mouse) into the flank of female nude MF1 mice and grown to a volume of about 200 mm^3 prior to compound administration. Gemcitabine was dosed alone at 15 mg/kg ip, once every three days (ip, q3d) in 0.5% methylcellulose in water for a maximum of 10 cycles. VE-822 was dosed, as a suspension in 0.5% methylcellulose in water, alone at either 10, 30 or 60 mg/kg po every other day for 28 days (po q2d). Three combination groups received gemcitabine at 15 mg/kg plus VE-822 either at 10, 30 or at 60 mg/kg po on the same schedule as the single agent groups. A control group received vehicle alone (0.5% methylcellulose ip q3d). All drug treatment was stopped on Day 30. Vehicle and VE-822 groups were sacrificed on day 13 due to excessive tumor volumes.
Data shown are mean tumor volume±SEM (n=8 per group). Red filled circles are VE-822 treatment; Black filled squares are vehicle treatment; Green filled circles are gemcitabine treatment; Blue filled circles are gemcitabine and VE-822 (10 mg/kg) treatment; Red filled circles are gemcitabine and VE-822 (30 mg/kg) treatment; Pink filled circles are gemcitabine and VE-822 (60 mg/kg) treatment;

Row | SMILES | damage-induced cell cycle checkpoints (pancreatic cancer cells) | RAD51 foci formation ([1]; fixed 6 h post-irradiation, FIG. 5) | 53BP1 and γH2AX foci number ([1]; fixed 24 h post-irradiation, FIG. 5) | repair of DNA damage by homologous recombination ([1]; FIG. 5 panels A, B, C) | radiosensitisation of pancreatic tumour cells (cell viability) [2] | phosphorylation of Chk1 (Ser 345) [3] | antitumor effects of ionizing radiation (tumor volume over time) [4] | antitumor effects of gemcitabine (tumor volume) [5]
1 | CS(=O)(=O)c1ccc(-c2cnc(N)c(C(=O)Nc3ccccc3)n2)cc1 [VE-821] | disrupts damage-induced cell cycle checkpoints | reduces RAD51 foci formation | increases 53BP1 and γH2AX foci number | inhibits repair of DNA damage by homologous recombination | radiosensitises pancreatic tumour cells | inhibits phosphorylation of Chk1 (Ser 345) | – | –
2 | CNCc1ccc(-c2cc(-c3nc(-c4ccc(S(=O)(=O)C(C)C)cc4)cnc3N)on2)cc1 [VE-822] | – | – | – | – | – | – | enhances the antitumor effects of ionizing radiation | enhances the antitumor effects of gemcitabine

— US10813929B2, “Treating cancer with ATR inhibitors” (VERTEX PHARMACEUTICALS INCORPORATED, priority 2011, dated 2020)
